{"source": "ChEMBL document CHEMBL5518159", "about": "“Thiazole-based analogues as potential antibacterial agents against methicillin-resistant Staphylococcus aureus (MRSA) and their SAR elucidation” (Eur J Med Chem, 2023)", "type_in_all_cases": "functional", "key": {"Staphylococcus aureus [1]": {"tested_on": "Staphylococcus aureus", "assay": "Antibacterial activity against clinical isolate Methicillin resistant Staphylococcus aureus 2658 RCMB assessed as reduction in microbial growth incubated for 16 to 24 hrs by CLSI-based Muller Hinton broth based microdilution method", "details": "time 16-24 hrs"}, "Staphylococcus aureus [2]": {"tested_on": "Staphylococcus aureus", "assay": "Antibacterial activity against methicillin-resistant Staphylococcus aureus ATCC 43300 assessed as bacterial growth inhibition incubated for 24 hrs by broth dilution method"}, "Staphylococcus aureus [3]": {"tested_on": "Staphylococcus aureus", "assay": "Antibacterial activity against methicillin-resistant Staphylococcus aureus ATCC 43300 assessed as reduction in bacterial growth by CLSI protocol based broth microdilution method"}, "Staphylococcus aureus [4]": {"tested_on": "Staphylococcus aureus", "assay": "Antibacterial activity against methicillin-resistant Staphylococcus aureus assessed as inhibition of bacterial growth measured after 24 hrs by broth micro-dilution method"}, "Escherichia coli [5]": {"tested_on": "Escherichia coli", "assay": "Antibacterial activity against Escherichia coli ATCC 25922 assessed as reduction in bacterial growth incubated for 18 to 24 hrs by broth microdilution method", "details": "time 18-24 hrs"}, "Staphylococcus aureus [6]": {"tested_on": "Staphylococcus aureus", "assay": "Antibacterial activity against Methicillin-resistant Staphylococcus aureus […] assessed as reduction in microbial growth incubated for 18 to 24 hrs by broth micro-dilution method", "details": "time 18-24 hrs"}, "Staphylococcus aureus [7]": {"tested_on": "Staphylococcus aureus", "assay": "Antibacterial activity against methicillin-resistant Staphylococcus aureus ATCC 33592 assessed as reduction in microbial growth incubated for 16 to 20 hrs by CLSI based two-fold serial dilution method", "details": "time 16-20 hrs"}, "Staphylococcus aureus [8]": {"tested_on": "Staphylococcus aureus", "assay": "Antibacterial activity against vancomycin-resistant Staphylococcus aureus assessed as bacterial growth inhibition incubated for 18 to 24 hrs by CLSI-based microdilution method", "details": "time 18-24 hrs"}, "Staphylococcus aureus [9]": {"tested_on": "Staphylococcus aureus", "assay": "Antibacterial activity against Methicillin-resistant Staphylococcus aureus AUMC 261 assessed as bacterial growth inhibition incubated for 24 hrs by broth microdilution analysis"}, "Escherichia coli [10]": {"tested_on": "Escherichia coli", "assay": "Antibiofilm activity against Escherichia coli ATCC 25922 assessed as reduction in biofilm formation at 50 uM incubated for 24 hrs by crystal violet staining based analysis relative to control", "set-up": "scale not given: the % may be the effect or the level left"}, "Staphylococcus aureus [11]": {"tested_on": "Staphylococcus aureus", "assay": "Antibacterial activity against Methicillin-resistant Staphylococcus aureus assessed as reduction of microbial growth by Muller Hinton broth based dilution assay"}, "Escherichia coli [12]": {"tested_on": "Escherichia coli", "assay": "Antibacterial activity against Escherichia coli ATCC 35210 assessed as reduction in microbial growth"}}, "data": [{"smiles": "Cc1nc(-c2ccc3ccccc3c2)sc1-c1nnc(NC(=N)N2CCN(C)CC2)o1", "values": [{"measurement": "MIC", "setting": "Staphylococcus aureus [1]", "result": 1.9, "unit": "µg/mL"}]}, {"smiles": "O=C1CSC(c2ccc(Cl)cc2)N1c1nc2ccc(OC(F)(F)F)cc2s1", "note": "(centres undefined)", "values": [{"measurement": "MBC", "setting": "Staphylococcus aureus [2]", "result": 120, "unit": "µg/mL"}, {"measurement": "MIC", "setting": "Staphylococcus aureus [3]", "result": 250, "unit": "µg/mL"}]}, {"smiles": "Cc1nc(-c2ccc3ccccc3c2)sc1-c1nnc(NC(=N)N)o1", "values": [{"measurement": "MIC", "setting": "Staphylococcus aureus [1]", "result": 1.9, "unit": "µg/mL"}]}, {"smiles": "Cc1cnc(/C=c2\\[nH]c(=O)/c(=C\\c3ccc(Br)cc3)s2)s1", "values": [{"measurement": "MIC", "setting": "Staphylococcus aureus [4]", "result": 40, "unit": "µg/mL"}]}, {"smiles": "Cc1cnc(/C=c2\\[nH]c(=O)/c(=C\\c3cccc(F)c3)s2)s1", "values": [{"measurement": "MIC", "setting": "Staphylococcus aureus [4]", "result": 40, "unit": "µg/mL"}]}, {"smiles": "COc1ccc(N/N=C2/S/C(=N\\N=C3/C(=O)Nc4ccc(Br)cc43)N=C2C)cc1", "values": [{"measurement": "MIC", "setting": "Escherichia coli [5]", "result": 1, "unit": "µg/mL"}, {"measurement": "MIC", "setting": "Staphylococcus aureus [6]", "result": 1, "unit": "µg/mL"}]}, {"smiles": "O=C1CSC(c2c(F)cccc2F)N1c1nc2ccc(OC(F)(F)F)cc2s1", "note": "(centres undefined)", "values": [{"measurement": "MBC", "setting": "Staphylococcus aureus [2]", "result": 120, "unit": "µg/mL"}, {"measurement": "MIC", "setting": "Staphylococcus aureus [3]", "result": 250, "unit": "µg/mL"}]}, {"smiles": "CCn1cc(-c2csc(N)n2)c(=O)c2cc(F)c(N3CCN(Cc4ccc(Cl)c(Cl)c4)CC3)cc21", "values": [{"measurement": "MIC", "setting": "Staphylococcus aureus [7]", "result": 8, "unit": "µg/mL"}]}, {"smiles": "COc1ccc(/C=c2/s/c(=C/c3ncc(C)s3)[nH]c2=O)cc1", "values": [{"measurement": "MIC", "setting": "Staphylococcus aureus [4]", "result": 40, "unit": "µg/mL"}]}, {"smiles": "Cc1ccc(C2SCC(=O)N2c2nc3ccc(OC(F)(F)F)cc3s2)cc1", "note": "(centres undefined)", "values": [{"measurement": "MBC", "setting": "Staphylococcus aureus [2]", "result": 120, "unit": "µg/mL"}, {"measurement": "MIC", "setting": "Staphylococcus aureus [3]", "result": 250, "unit": "µg/mL"}]}, {"smiles": "O=C(O)CCN(c1ccc(Nc2ccccc2)cc1)c1nc(-c2ccc(F)cc2)cs1", "values": [{"measurement": "MIC", "setting": "Staphylococcus aureus [8]", "result": 1, "unit": "µg/mL"}]}, {"smiles": "O=C(O)c1cn(C2CC2)c2cc(N3CCN(C(=O)CN4C(=O)S/C(=C\\c5ccc(F)cc5)C4=O)CC3)c(F)cc2c1=O", "values": [{"measurement": "MIC", "setting": "Staphylococcus aureus [9]", "result": 2.88, "unit": "µg/mL"}]}, {"smiles": "O=C1CSC(c2c(Cl)cccc2Cl)N1c1nc2ccc(OC(F)(F)F)cc2s1", "note": "(centres undefined)", "values": [{"measurement": "MBC", "setting": "Staphylococcus aureus [2]", "result": 120, "unit": "µg/mL"}, {"measurement": "MIC", "setting": "Staphylococcus aureus [3]", "result": 250, "unit": "µg/mL"}]}, {"smiles": "CCn1cc(-c2csc(N)n2)c(=O)c2cc(F)c(N3CCN(Cc4ccc(Cl)cc4)CC3)cc21", "values": [{"measurement": "MIC", "setting": "Staphylococcus aureus [7]", "result": 8, "unit": "µg/mL"}]}, {"smiles": "O=C1CSC(c2cccc(Cl)c2Cl)N1c1nc2ccc(OC(F)(F)F)cc2s1", "note": "(centres undefined)", "values": [{"measurement": "MBC", "setting": "Staphylococcus aureus [2]", "result": 120, "unit": "µg/mL"}, {"measurement": "MIC", "setting": "Staphylococcus aureus [3]", "result": 250, "unit": "µg/mL"}]}, {"smiles": "O=C1CSC(c2ccc(O)cc2)N1c1nc2ccc(OC(F)(F)F)cc2s1", "note": "(centres undefined)", "values": [{"measurement": "MBC", "setting": "Staphylococcus aureus [2]", "result": 120, "unit": "µg/mL"}, {"measurement": "MIC", "setting": "Staphylococcus aureus [3]", "result": 250, "unit": "µg/mL"}]}, {"smiles": "CCOC1=NC(=N/N=C2\\C(=O)Nc3ccc(Br)cc32)/S/C1=N/Nc1ccc([N+](=O)[O-])cc1", "values": [{"measurement": "MIC", "setting": "Escherichia coli [5]", "result": 8, "unit": "µg/mL"}, {"measurement": "Activity", "setting": "Escherichia coli [10]", "result": 90, "unit": "%"}, {"measurement": "MIC", "setting": "Staphylococcus aureus [6]", "result": 8, "unit": "µg/mL"}]}, {"smiles": "O=C(/C(=C/c1ccc(-c2ccc(Cl)cc2Cl)cc1)Oc1ccc2c(CN(CCO)CCO)cc(=O)oc2c1)c1nccs1", "values": [{"measurement": "MIC", "setting": "Staphylococcus aureus [11]", "result": 4, "unit": "µg/mL"}]}, {"smiles": "O=C(O)c1cn(C2CC2)c2cc(N3CCN(C(=O)CN4C(=O)S/C(=C\\c5ccoc5)C4=O)CC3)c(F)cc2c1=O", "values": [{"measurement": "MIC", "setting": "Staphylococcus aureus [9]", "result": 2.88, "unit": "µg/mL"}]}, {"smiles": "O=C1CSC(c2c(F)cccc2Cl)N1c1nc2ccc(OC(F)(F)F)cc2s1", "note": "(centres undefined)", "values": [{"measurement": "MBC", "setting": "Staphylococcus aureus [2]", "result": 120, "unit": "µg/mL"}, {"measurement": "MIC", "setting": "Staphylococcus aureus [3]", "result": 250, "unit": "µg/mL"}]}, {"smiles": "O=C(O)CCN(c1ccc(Nc2ccccc2)cc1)c1nc(-c2ccc(Cl)cc2)cs1", "values": [{"measurement": "MIC", "setting": "Staphylococcus aureus [8]", "result": 1, "unit": "µg/mL"}]}, {"smiles": "CCOC1=NC(=N/N=C2\\C(=O)Nc3ccc(Br)cc32)/S/C1=N/Nc1ccccc1", "values": [{"measurement": "MIC", "setting": "Escherichia coli [5]", "result": 4, "unit": "µg/mL"}, {"measurement": "Activity", "setting": "Escherichia coli [10]", "result": 90, "unit": "%"}, {"measurement": "MIC", "setting": "Staphylococcus aureus [6]", "result": 8, "unit": "µg/mL"}]}, {"smiles": "N#Cc1c(N2CCN(CC(=O)Nc3nccs3)CC2)nc(-c2ccco2)c2c1CCC2", "values": [{"measurement": "MIC", "setting": "Escherichia coli [12]", "result": 230, "unit": "µg/mL"}]}, {"smiles": "COc1ccc(/C=C(\\Oc2ccc3c(CN(CCO)CCO)cc(=O)oc3c2)C(=O)c2nccs2)cc1", "values": [{"measurement": "MIC", "setting": "Staphylococcus aureus [11]", "result": 2, "unit": "µg/mL"}]}, {"smiles": "O=C(/C(=C/c1ccc(-c2ccc([N+](=O)[O-])cc2)cc1)Oc1ccc2c(CN(CCO)CCO)cc(=O)oc2c1)c1nccs1", "values": [{"measurement": "MIC", "setting": "Staphylococcus aureus [11]", "result": 4, "unit": "µg/mL"}]}, {"smiles": "O=C1CSC(c2ccc([N+](=O)[O-])cc2)N1c1nc2ccc(OC(F)(F)F)cc2s1", "note": "(centres undefined)", "values": [{"measurement": "MBC", "setting": "Staphylococcus aureus [2]", "result": 120, "unit": "µg/mL"}, {"measurement": "MIC", "setting": "Staphylococcus aureus [3]", "result": 250, "unit": "µg/mL"}]}, {"smiles": "Cc1cnc(/C=c2\\[nH]c(=O)/c(=C\\c3cccc(Br)c3)s2)s1", "values": [{"measurement": "MIC", "setting": "Staphylococcus aureus [4]", "result": 40, "unit": "µg/mL"}]}, {"smiles": "O=C(O)c1cn(C2CC2)c2cc(N3CCN(C(=O)CN4C(=O)S/C(=C\\c5ccc([N+](=O)[O-])cc5)C4=O)CC3)c(F)cc2c1=O", "values": [{"measurement": "MIC", "setting": "Staphylococcus aureus [9]", "result": 2.88, "unit": "µg/mL"}]}, {"smiles": "CC(C)Cc1nc(N2CCN(CC(=O)Nc3nccs3)CC2)c(C#N)c2c1CCC2", "values": [{"measurement": "MIC", "setting": "Escherichia coli [12]", "result": 230, "unit": "µg/mL"}]}, {"smiles": "O=C1CSC(c2ccc(Cl)cc2Cl)N1c1nc2ccc(OC(F)(F)F)cc2s1", "note": "(centres undefined)", "values": [{"measurement": "MBC", "setting": "Staphylococcus aureus [2]", "result": 120, "unit": "µg/mL"}, {"measurement": "MIC", "setting": "Staphylococcus aureus [3]", "result": 250, "unit": "µg/mL"}]}, {"smiles": "CCn1cc(-c2csc(N)n2)c(=O)c2cc(F)c(N3CCN(Cc4ccc(Cl)cc4Cl)CC3)cc21", "values": [{"measurement": "MIC", "setting": "Staphylococcus aureus [7]", "result": 8, "unit": "µg/mL"}]}, {"smiles": "O=C(O)c1cn(C2CC2)c2cc(N3CCN(C(=O)CN4C(=O)S/C(=C\\c5ccccc5)C4=O)CC3)c(F)cc2c1=O", "values": [{"measurement": "MIC", "setting": "Staphylococcus aureus [9]", "result": 2.88, "unit": "µg/mL"}]}, {"smiles": "O=C1CSC(c2ccc(F)cc2)N1c1nc2ccc(OC(F)(F)F)cc2s1", "note": "(centres undefined)", "values": [{"measurement": "MBC", "setting": "Staphylococcus aureus [2]", "result": 120, "unit": "µg/mL"}, {"measurement": "MIC", "setting": "Staphylococcus aureus [3]", "result": 250, "unit": "µg/mL"}]}, {"smiles": "CCc1nc(N2CCN(CC(=O)Nc3nccs3)CC2)c(C#N)c2c1COC(C)(C)C2", "values": [{"measurement": "MIC", "setting": "Escherichia coli [12]", "result": 230, "unit": "µg/mL"}]}]}
